Converted amounts (≈) assume the structure as drawn.

One experiment has as its system N. gonorrhoeae WHO Z. As to the kind of experiment: Liquid broth MIC in Fastidious broth. The following applies: Neisseria gonorrhoeae, read-out: Minimum Inhibitory Concentration, WHO Z.
For experiment [1], the target named is T1, PBP3 from Escherichia coli (K-12) (Escherichia coli, UniProt P0AD68).
T1 construct: made in house
The experiment in a line: Bocillin-FL fluorescence polarization competition binding, E. coli PBP3. The method in brief: (§1)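 Purified PBP was preincubated with inhibitor (E. coli PBP3 1.5 μM, 30 min; P. aeruginosa PBP3 0.75 μM, A. baumannii PBP3 0.2 μM and PBP1a 1 μM, 15 min), then Bocillin-FL (0.1 μM; 0.05 μM for PBP1a) added and FP read up to 60 min. EC50 = 50% loss of bound probe.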
(In general: Fluorescence polarisation rises when a labelled molecule tumbles more slowly, as on binding a larger partner.)

In a further experiment the test system is N. gonorrhoeae CDC-0197. The experiment in a line: Liquid broth MIC in Fastidious broth. The following applies: Neisseria gonorrhoeae, CDC0197, read-out: Minimum Inhibitory Concentration, CDC-0197.
Experiment [2] deals with T2, PBP3 from Pseudomonas aeruginosa (PAO1) (Pseudomonas aeruginosa, UniProt G3XD46).
T2 construct: made in house
The experiment in a line: Bocillin-FL fluorescence polarization competition binding, P. aeruginosa PBP3. The following applies: Binding affinity to P. aeruginosa PBP3; fluorescence polarization competition binding assay using Bocillin-FL; read-out: P. aeruginosa PBP3 Potency. In a few lines: as §1

For another experiment, the system named is N. gonorrhoeae WHO G. The experiment in a line: Liquid broth MIC in Fastidious broth. The note with it: Neisseria gonorrhoeae, read-out: Minimum Inhibitory Concentration, WHO G.
The test system of experiment [3] is B. humptydooensis ATCC BAA-2767. As to the kind of experiment: microbe, parasite or virus in culture. It is filed as cell-based. The note with it: Burkholderia humptydooensis, ATCCBAA2767, read-out: Minimum inhibitory concentration (MIC), B. humptydooensis ATCC BAA-2767.
The test system of experiment [4] is P. aeruginosa (ΔmexAB-oprM). The experiment in a line: Broth microdilution MIC in iron-depleted CAMHB (IDM). It is filed as cell-based. The following applies: Pseudomonas aeruginosa; iron-depleted CAMHB (IDM); […]; read-out: Minimum inhibitory concentration, P. aeruginosa ΔmexAB-oprM.
Experiment [5] deals with N. gonorrhoeae ATCC 49226. As to the kind of experiment: Liquid broth MIC in Fastidious broth. The note with it: Neisseria gonorrhoeae, ATCC49226, read-out: Minimum Inhibitory Concentration, ATCC 49226.
A further experiment concerns A. baumannii CDC-0045. The experiment in a line: microbe, parasite or virus in culture. In kind it is cell-based. The following applies: Acinetobacter baumannii, CDC0045, read-out: MIC, A. baumannii CDC-0045.
Another experiment has as its system N. gonorrhoeae FA1090. As to the kind of experiment: Liquid broth MIC in Fastidious broth. The note with it: Neisseria gonorrhoeae, FA1090, read-out: Minimum Inhibitory Concentration, FA 1090.
The test system of the next experiment is N. gonorrhoeae WHO L. As to the kind of experiment: Liquid broth MIC in Fastidious broth. The note with it: Neisseria gonorrhoeae, read-out: Minimum Inhibitory Concentration, WHO L.
A further experiment has as its system P. aeruginosa ATCC 27853. As to the kind of experiment: microbe, parasite or virus in culture. In kind it is cell-based. The note with it: Pseudomonas aeruginosa, ATCC27853, read-out: Minimum inhibitory concentration, P. aeruginosa ATCC 27853.
In experiment [6] the test system is B. thailandensis ATCC 700388. As to the kind of experiment: microbe, parasite or virus in culture. In kind it is cell-based. The note with it: Burkholderia thailandensis, ATCC700388, read-out: Minimum inhibitory concentration (MIC), B. thailandensis ATCC 700388.
Another experiment concerns A. baumannii ATCC 19606. The experiment in a line: microbe, parasite or virus in culture. In kind it is cell-based. The note with it: Acinetobacter baumannii, ATCC19606, read-out: MIC, A. baumannii ATCC 19606.
Another experiment concerns N. gonorrhoeae MS11. The experiment in a line: Liquid broth MIC in Fastidious broth. The following applies: Neisseria gonorrhoeae, MS11, read-out: Minimum Inhibitory Concentration, MS11.

T2 sequence (G3XD46 whole entry): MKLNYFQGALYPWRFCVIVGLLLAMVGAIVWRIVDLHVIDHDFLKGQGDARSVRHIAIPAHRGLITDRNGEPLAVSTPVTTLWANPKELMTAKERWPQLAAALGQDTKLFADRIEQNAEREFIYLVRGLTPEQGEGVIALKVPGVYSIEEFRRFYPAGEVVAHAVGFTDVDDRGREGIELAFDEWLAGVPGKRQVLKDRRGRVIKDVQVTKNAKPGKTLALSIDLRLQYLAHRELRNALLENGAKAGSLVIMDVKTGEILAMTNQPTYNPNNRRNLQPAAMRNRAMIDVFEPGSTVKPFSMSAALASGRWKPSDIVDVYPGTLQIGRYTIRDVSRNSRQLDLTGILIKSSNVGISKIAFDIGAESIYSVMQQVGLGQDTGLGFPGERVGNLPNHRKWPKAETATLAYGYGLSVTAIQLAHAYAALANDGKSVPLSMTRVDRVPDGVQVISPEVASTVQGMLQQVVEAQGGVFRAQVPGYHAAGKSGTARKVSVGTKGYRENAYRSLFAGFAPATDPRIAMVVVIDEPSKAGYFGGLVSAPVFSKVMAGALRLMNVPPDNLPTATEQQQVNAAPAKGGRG
T1 sequence (P0AD68 1-577): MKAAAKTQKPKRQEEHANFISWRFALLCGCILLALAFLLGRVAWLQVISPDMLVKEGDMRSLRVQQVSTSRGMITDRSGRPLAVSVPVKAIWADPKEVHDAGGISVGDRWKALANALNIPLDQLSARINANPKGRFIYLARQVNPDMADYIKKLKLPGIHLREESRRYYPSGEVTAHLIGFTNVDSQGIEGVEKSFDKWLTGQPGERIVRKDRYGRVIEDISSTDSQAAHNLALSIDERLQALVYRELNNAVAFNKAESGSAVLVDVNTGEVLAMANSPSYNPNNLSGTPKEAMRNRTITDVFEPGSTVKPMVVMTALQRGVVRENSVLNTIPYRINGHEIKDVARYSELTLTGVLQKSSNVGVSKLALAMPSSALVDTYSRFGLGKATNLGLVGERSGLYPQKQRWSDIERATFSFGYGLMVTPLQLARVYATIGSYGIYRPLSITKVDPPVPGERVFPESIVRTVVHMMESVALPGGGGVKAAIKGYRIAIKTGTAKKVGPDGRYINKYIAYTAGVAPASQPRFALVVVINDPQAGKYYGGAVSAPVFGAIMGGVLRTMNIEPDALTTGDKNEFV
Method for N. gonorrhoeae FA1090: (§2) Additional antibacterial testing of the series was performed in 8 reference strains of N. gonorrhoeae (ATCC 49226, FA1090, MS 11, WHO G, WHO L, WHO M, WHO K, WHO X, WHO Z, WHO Q, CDC-0197). ATCC 49226, FA1090, MS11, WHO G, WHO L, and WHO M produce wild type or wild-type like PBP2. WHO K, WHO X, WHO Z, WHO Q, and CDC-0197 produce mosaic PBP2. Liquid broth-based assays were used for antibacterial testing of PBP inhibitors in Neisseria gonorrhoeae. Briefly, cryo-preserved bacterial cultures of clinical strains were streaked for isolation on Chocolate Agar (72 g/L (2×) GC Agar Base (BD #228950) and 2% (2×) Hemoglobin was autoclaved at 121° C. for 20 minutes to sterilize. Once cooled to ˜50° C. the 2×GC Agar Base and 2× Hemoglobin solutions are combined and 1% IsoVitaleX Enrichment (BD #211876) was added to the solution). Strains were incubated at 36° C. and 5% CO2 to allow growth of colonies, 24 hours before inoculum preparation. 2-fold serial dilutions of test compounds were conducted in a 96 well plate with a final volume of 75 μL per well at 2-fold the final desired concentration in Fastidious broth (Remel #R07664). For preparation of assay inoculum, a direct suspension was prepared by aseptically swabbing 10-15 colonies from agar plates into culture tubes containing 2 mL of fresh sterile saline. After the dilution plates were set up, direct suspensions were then diluted in a cuvette containing sterile saline and the optical density was measured at 600 nm. Inocula were diluted such that 75 μL of this culture in Fastidious broth results in a starting bacterial concentration of 5×10^5 CFU/mL when added to the dilution plates. The plates were incubated for ˜24 hours at 36° C. and 5% CO2.
Method for N. gonorrhoeae MS11: as §2

`O=C(NCCS(=O)(=O)N1CCN(C(=O)N[C@@H](C(=O)N[C@H]2Cc3ccc(F)c(C(=O)O)c3OB2O)c2cc(F)c(O)c(O)c2Cl)C1=O)c1nccs1` [Example 264, (R)-3-((R)-2-(2-chloro-5-fluoro-3,4-dihydroxyphenyl)-2-(2-oxo-3-((2-(thiazole-2-carboxamido)ethyl)sulfonyl)imidazolidine-1-carboxamido)acetamido)-7-fluoro-2-hydroxy-3,4-dihydro-2H-benzo[e][1,2]oxaborinine-8-carboxylic acid]: the MIC in the experiment on N. gonorrhoeae WHO Z is 4 to 8 µg/mL (≈ 5.18 to 10.4 µM); with N. gonorrhoeae CDC-0197, 16 to 32 µg/mL (≈ 20.7 to 41.4 µM); in the experiment on N. gonorrhoeae WHO G it was 16 to 32 µg/mL (≈ 20.7 to 41.4 µM); in experiment [3], 2 to 4 µg/mL (≈ 2.59 to 5.18 µM); in experiment [4] it was less than 1 µg/mL; in experiment [5] it was 16 to 32 µg/mL (≈ 20.7 to 41.4 µM). In addition, the MIC was less than 1 µg/mL with A. baumannii CDC-0045; 1 to 2 µg/mL (≈ 1.29 to 2.59 µM) in the experiment with N. gonorrhoeae FA1090; greater than 64 µg/mL with N. gonorrhoeae WHO L; less than 1 µg/mL in the experiment on P. aeruginosa ATCC 27853; less than 1 µg/mL in experiment [6]; less than 1 µg/mL in the experiment on A. baumannii ATCC 19606. Also, the MIC with N. gonorrhoeae MS11 is 16 to 32 µg/mL (≈ 20.7 to 41.4 µM). The molecule also returned an EC50 in [1] of less than 10 µM. Besides, the IC50 in experiment [2] is less than 10 µM.
On to `O=C(O)c1c(F)ccc2c1OB(O)[C@@H](NC(=O)C(NC(=O)N1CCN(S(=O)(=O)CCNC(=O)[C@@H]3CCCN3)C1=O)c1cc(F)c(O)c(O)c1Cl)C2` (stereo partly drawn) [Example 265, (3R)-3-(2-(2-chloro-5-fluoro-3,4-dihydroxyphenyl)-2-(2-oxo-3-((2-((S)-pyrrolidine-2-carboxamido)ethyl)sulfonyl)imidazolidine-1-carboxamido)acetamido)-7-fluoro-2-hydroxy-3,4-dihydro-2H-benzo[e][1,2]oxaborinine-8-carboxylic acid], for which the MIC was 4 to 8 µg/mL (≈ 5.27 to 10.5 µM) in the experiment on N. gonorrhoeae WHO Z; 16 to 32 µg/mL (≈ 21.1 to 42.2 µM) in the experiment on N. gonorrhoeae CDC-0197; 16 to 32 µg/mL (≈ 21.1 to 42.2 µM) in the experiment with N. gonorrhoeae WHO G; less than 1 µg/mL in [3]; less than 1 µg/mL in [4]; 16 to 32 µg/mL (≈ 21.1 to 42.2 µM) in experiment [5]. For the same molecule, the MIC in the experiment on A. baumannii CDC-0045 was less than 1 µg/mL; in the experiment with N. gonorrhoeae FA1090, 4 to 8 µg/mL (≈ 5.27 to 10.5 µM); in the experiment on N. gonorrhoeae WHO L, greater than 64 µg/mL; with P. aeruginosa ATCC 27853, 2 to 4 µg/mL (≈ 2.64 to 5.27 µM); in experiment [6], less than 1 µg/mL; in the experiment on A. baumannii ATCC 19606, less than 1 µg/mL. Further, the MIC with N. gonorrhoeae MS11 is 16 to 32 µg/mL (≈ 21.1 to 42.2 µM). Further, the EC50 in [1] was in the range of 10 to 50 µM. In experiment [2], the IC50 is less than 10 µM.
With `O=C(NCCS(=O)(=O)N1CCN(C(=O)NC(C(=O)N[C@H]2Cc3ccc(F)c(C(=O)O)c3OB2O)c2cc(F)c(O)c(O)c2Cl)C1=O)Nc1cccc(O)c1` (stereo partly drawn) [Example 266, (3R)-3-(2-(2-chloro-5-fluoro-3,4-dihydroxyphenyl)-2-(3-((2-(3-(3-hydroxyphenyl)ureido)ethyl)sulfonyl)-2-oxoimidazolidine-1-carboxamido)acetamido)-7-fluoro-2-hydroxy-3,4-dihydro-2H-benzo[e][1,2]oxaborinine-8-carboxylic acid], the MIC in the experiment with N. gonorrhoeae WHO Z is 4 to 8 µg/mL (≈ 5.02 to 10 µM); in the experiment with N. gonorrhoeae CDC-0197, 16 to 32 µg/mL (≈ 20.1 to 40.2 µM); with N. gonorrhoeae WHO G, 16 to 32 µg/mL (≈ 20.1 to 40.2 µM); in experiment [3], 8 to 16 µg/mL (≈ 10 to 20.1 µM); in experiment [4], less than 1 µg/mL; in experiment [5], 16 to 32 µg/mL (≈ 20.1 to 40.2 µM). Besides, the MIC with A. baumannii CDC-0045 was less than 1 µg/mL; in the experiment with N. gonorrhoeae FA1090 it was 1 to 2 µg/mL (≈ 1.25 to 2.51 µM); with N. gonorrhoeae WHO L, greater than 64 µg/mL; with P. aeruginosa ATCC 27853 it was 2 to 4 µg/mL (≈ 2.51 to 5.02 µM); in experiment [6] it was 2 to 4 µg/mL (≈ 2.51 to 5.02 µM); in the experiment with A. baumannii ATCC 19606, less than 1 µg/mL. Besides, in the experiment with N. gonorrhoeae MS11, the MIC was 16 to 32 µg/mL (≈ 20.1 to 40.2 µM). In experiment [1], this molecule came in with an EC50 of less than 10 µM. In addition, the IC50 in experiment [2] was less than 10 µM.

For orientation: EC50 means the midpoint of the concentration-response curve. A high value points to weaker potency.

The record behind these values is patent publication US20240270762A1, “PENICILLIN-BINDING PROTEIN INHIBITORS” (priority 2021, published 2024).
